Experimental data published in patent US20230330045A1 (priority 2020, published 2023).
Read-outs that look alike come from different tables or passages of the source.

Biological target: eel acetylcholinesterase (AChE) (Electrophorus electricus, UniProt O42275)
Assay: Eel AChE fluorescence assay (AMPLEX Red kit)
Format: biochemical
Experimental: Enzymatic reactions consisted of 50 μM acetylcholine, 200 μM AIVIPLEX™ Red reagent, 1 U/mL horseradish peroxidase, 0.1 U/mL choline oxidase and 0.096 U/mL acetylcholinesterase, with 30 1% DMSO. […] Control reactions lacking acetylcholinesterase but containing 5 μM H2O2 in presence of compounds were analyzed at the same wavelength to exclude compounds that display assay interference. Dose-response curves were performed in duplicate.

Chain of eel acetylcholinesterase (AChE) (O42275 24-633): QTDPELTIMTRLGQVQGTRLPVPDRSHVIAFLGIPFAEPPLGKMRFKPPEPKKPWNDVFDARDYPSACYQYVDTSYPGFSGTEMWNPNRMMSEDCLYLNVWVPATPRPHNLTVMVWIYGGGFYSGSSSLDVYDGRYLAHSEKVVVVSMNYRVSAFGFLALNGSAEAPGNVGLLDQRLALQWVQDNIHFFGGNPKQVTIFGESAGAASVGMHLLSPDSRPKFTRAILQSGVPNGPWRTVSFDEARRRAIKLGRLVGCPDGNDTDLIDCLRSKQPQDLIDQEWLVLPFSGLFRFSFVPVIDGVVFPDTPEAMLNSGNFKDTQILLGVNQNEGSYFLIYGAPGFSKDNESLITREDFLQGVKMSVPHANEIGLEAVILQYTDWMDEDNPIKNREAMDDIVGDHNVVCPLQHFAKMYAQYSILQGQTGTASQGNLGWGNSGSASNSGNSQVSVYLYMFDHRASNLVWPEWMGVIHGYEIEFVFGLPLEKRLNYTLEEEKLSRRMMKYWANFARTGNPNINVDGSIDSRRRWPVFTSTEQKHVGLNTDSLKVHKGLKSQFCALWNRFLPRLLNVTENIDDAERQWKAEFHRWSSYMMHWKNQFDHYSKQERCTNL

Compound | inhibition at 20 µM (eel AChE activity, at 20 μM, read-out: Percentage inhibition) [%] | inhibition at 20 µM (read-out: inhibition of enzyme activity compared to DMSO control (screen)) [%] | assay interference test versus enzyme-free H2O2 reaction (parallel dose-response with 5 μM H2O2) | Hill slope, eel AChE dose-response (sixteen-point serial dilution, four-parameter fit)
COc1ccc2nc3cc(Cl)ccc3c(Nc3cc(CN4CCCC4)c(O)c(CN4CCCC4)c3)c2n1 [pyronaridine] | 53.6 | > 50 | – | –
agelasine | – | – | likely represent true inhibition of the enzyme | 0.79
